# Laboratory results taken from ChEMBL document CHEMBL1131996, “Design, combinatorial chemical synthesis and in vitro characterization of novel urea based gelatinase inhibitors” (Bioorg Med Chem Lett, 1999).
# “And” between values parts separate entries of the source, which are not always exact repeats. Equal values may be shown once.
# Biological target: 72 kDa type IV collagenase (Homo sapiens, UniProt P08253)
# Experiment: Inhibitory activity against matrix metalloprotease-2 (MMP-2).
# Sequence of 72 kDa type IV collagenase (P08253 whole entry): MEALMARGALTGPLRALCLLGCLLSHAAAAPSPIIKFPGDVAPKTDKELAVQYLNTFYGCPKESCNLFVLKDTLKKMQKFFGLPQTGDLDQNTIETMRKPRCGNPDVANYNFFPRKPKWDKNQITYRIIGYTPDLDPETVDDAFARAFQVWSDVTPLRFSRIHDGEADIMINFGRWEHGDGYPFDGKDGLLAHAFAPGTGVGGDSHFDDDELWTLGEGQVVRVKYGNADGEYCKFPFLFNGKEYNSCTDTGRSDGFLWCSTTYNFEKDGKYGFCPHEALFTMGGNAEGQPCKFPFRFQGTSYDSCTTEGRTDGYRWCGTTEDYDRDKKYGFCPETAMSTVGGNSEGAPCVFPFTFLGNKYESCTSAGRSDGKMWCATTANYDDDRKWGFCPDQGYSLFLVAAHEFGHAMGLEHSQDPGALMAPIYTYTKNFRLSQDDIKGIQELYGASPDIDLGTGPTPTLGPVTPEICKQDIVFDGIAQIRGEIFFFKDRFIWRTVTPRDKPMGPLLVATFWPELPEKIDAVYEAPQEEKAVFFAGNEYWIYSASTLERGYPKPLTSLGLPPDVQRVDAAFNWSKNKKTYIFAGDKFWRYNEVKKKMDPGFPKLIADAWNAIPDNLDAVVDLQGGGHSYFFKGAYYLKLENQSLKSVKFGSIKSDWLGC
row,SMILES,IC50
1,CCCCCN(CC(=O)NO)C(=O)CN(C(=O)Nc1ccc(Oc2ccccc2)cc1)C(C)CCC (stereo not given),160 µM
2,O=C(CN(Cc1ccccc1)C(=O)CN(CC1CCCCC1)C(=O)Nc1ccc(Oc2ccccc2)cc1)NO,125 µM
3,CCCCN(CC(=O)NO)C(=O)CN(CCc1ccc(F)cc1)C(=O)Nc1ccc(Oc2ccccc2)cc1,51 µM
4,CCCCN(CC(=O)NO)C(=O)CN(CC1CCCCC1)C(=O)Nc1ccc([N+](=O)[O-])cc1C,> 500 µM
5,CCCCN(CC(=O)N(CC(=O)NO)C(C)CC)C(=O)Nc1ccc(Oc2ccccc2)cc1 (stereo not given),54 µM
6,CCC(C)N(CC(=O)N(CC(=O)NO)C(C)C)C(=O)Nc1ccc(Oc2ccccc2)cc1 (stereo not given),72 µM
7,CCCCCCCN(CC(=O)NO)C(=O)CN(CCCCC)C(=O)Nc1ccc(Oc2ccccc2)cc1,60 µM
8,O=C(CN(CCCc1ccccc1)C(=O)CN(CCCc1ccccc1)C(=O)Nc1ccc(Oc2ccccc2)cc1)NO,2 µM
9,O=C(CN(C(=O)CN(CCCc1ccccc1)C(=O)Nc1ccc(Oc2ccccc2)cc1)C(c1ccccc1)c1ccccc1)NO,200 µM
10,CC(C)N(CC(=O)N(CC(=O)NO)C(C)(C)C)C(=O)Nc1ccc(Oc2ccccc2)cc1,155 µM
11,O=C(CN(C(=O)CN(C(=O)Nc1ccc(Oc2ccccc2)cc1)C(c1ccccc1)c1ccccc1)C(c1ccccc1)c1ccccc1)NO,50 µM
12,O=C(CN(CC1CCCCC1)C(=O)CN(CCCc1ccccc1)C(=O)Nc1ccc(Oc2ccccc2)cc1)NO,> 500 µM
13,O=C(CN(Cc1ccccc1)C(=O)CN(CCCc1ccccc1)C(=O)Nc1ccc(Oc2ccccc2)cc1)NO,0.3 µM
14,CCCCN(CC(=O)NO)C(=O)CN(CCCc1ccccc1)C(=O)Nc1ccc(Oc2ccccc2)cc1,230 µM
15,O=C(CN(CCCCc1ccccc1)C(=O)CN(CCCCc1ccccc1)C(=O)Nc1ccc(Oc2ccccc2)cc1)NO,52 µM
16,CC(C)(C)N(CC(=O)NO)C(=O)CN(CCCc1ccccc1)C(=O)Nc1ccc(Oc2ccccc2)cc1,> 500 µM
17,CCCC(C)N(CC(=O)NO)C(=O)CN(CCCc1ccccc1)C(=O)Nc1ccc(Oc2ccccc2)cc1 (stereo in doubt; form 2),100 µM
18,CCCCCN(CC(=O)NO)C(=O)CN(CCCc1ccccc1)C(=O)Nc1ccc(Oc2ccccc2)cc1,100 µM

row,SMILES,IC50
1,O=C(CN(CCCc1ccccc1)C(=O)CN(Cc1ccccc1)C(=O)Nc1ccc(Oc2ccccc2)cc1)NO,43 µM
2,O=C(CN(CCc1ccc(F)cc1)C(=O)CN(CCCc1ccccc1)C(=O)Nc1ccc(Oc2ccccc2)cc1)NO,40 µM
3,O=C(CN(CCCCc1ccccc1)C(=O)CN(CCCc1ccccc1)C(=O)Nc1ccc(Oc2ccccc2)cc1)NO,0.9 µM and 0.3 µM
4,CSc1ccccc1NC(=O)N(CCCc1ccccc1)CC(=O)N(CC(=O)NO)C(C)(C)C,150 µM
5,CCCC(C)N(CC(=O)NO)C(=O)CN(C(=O)Nc1ccc2ccccc2c1)C1CCCc2ccccc21 (stereo not given),120 µM
6,CC(C)(C)N(CC(=O)N(CC(=O)NO)CC1CCCCC1)C(=O)Nc1ccc(Oc2ccccc2)cc1,150 µM
7,CCCCCCCN(CC(=O)NO)C(=O)CN(CCCc1ccccc1)C(=O)Nc1ccc(Oc2ccccc2)cc1,150 µM
8,CCCCCCCN(CC(=O)NO)C(=O)CN(C(=O)Nc1ccc(OCCCC)cc1)C(c1ccccc1)c1ccccc1,> 500 µM
9,CCCCCCCN(CC(=O)N(CCc1ccc(F)cc1)CC(=O)NO)C(=O)Nc1ccc(Oc2ccccc2)cc1,114 µM
10,O=C(CN(C(=O)CN(C(=O)Nc1ccc(Oc2ccccc2)cc1)C1CCCc2ccccc21)C1CCCc2ccccc21)NO (stereo not given),60 µM
11,CCC(C)N(CC(=O)NO)C(=O)CN(Cc1ccccc1)C(=O)Nc1cccc2ccccc12 (stereo not given),110 µM
12,CCCCCN(CC(=O)NO)C(=O)CN(CCCCc1ccccc1)C(=O)Nc1cc(Cl)ccc1OC,> 500 µM
13,CCCC(C)N(CC(=O)NO)C(=O)CN(CCCc1ccccc1)C(=O)Nc1ccc(Oc2ccccc2)cc1 (stereo in doubt; form 1),23 µM
14,CCC(C)N(CC(=O)NO)C(=O)CN(CCCc1ccccc1)C(=O)Nc1ccc(Oc2ccccc2)cc1 (stereo not given),370 µM
15,CC(C)N(CC(=O)NO)C(=O)CN(CCCc1ccccc1)C(=O)Nc1ccc(Oc2ccccc2)cc1,> 500 µM
16,CC(C)N(CC(=O)NO)C(=O)CN(CCc1ccc(F)cc1)C(=O)Nc1ccc(Oc2ccccc2)cc1,90 µM
17,O=C(CN(C(=O)CN(CCCc1ccccc1)C(=O)Nc1ccc(Oc2ccccc2)cc1)C1CCCc2ccccc21)NO (stereo not given),> 500 µM
